Measurements: patent US9296741B2, “Bromodomain inhibitors” (priority 2012, dated 2016)
Where two headings read alike, the source gives them in different places.

How the values were obtained:
[1] = target: human BRD4 first bromodomain (BDI_K57-E168) (Homo sapiens (Human), UniProt O60885); assay: TR-FRET bromodomain binding assay, BRD4 first bromodomain
[2] = Rat liver microsome stability assay; type: in vitro ADME; details: for half-life at 0.5 μM: 0.25 mg/mL microsomal protein, read-out: Stability in rat liver microsomes (t1/2 in minutes)
[3] = Mouse liver microsome stability assay; type: in vitro ADME; details: male, CD1, mouse, microsomes, pH 7.4
[4] = Human liver microsome stability assay; type: in vitro ADME; details: human, microsomes, pH 7.4; for half-life at 0.5 μM: both sexes
[5] = target: human BRD4 second bromodomain (BDII_E352-M457) (Homo sapiens (Human), UniProt O60885); assay: TR-FRET bromodomain binding assay, BRD4 second bromodomain
[6] = test system: breast cancer cell line MX-1; assay: MX-1 cell line proliferation assay; type: cell-based, human; details: MX-1 cells, 3-day proliferation, Cell Titer Glo, read-out: Cellular proliferation: EC50
[7] = rat liver microsomes (male Sprague-Dawley), 0.5 μM test compound, pH 7.4, 37° C.

Row | Ki [1] | half-life at 0.5 μM [2, 7] | half-life at 0.5 μM [3] | half-life at 0.5 μM [4] | Ki [5] | Stability in rat liver microsomes (t1/2 in minutes) ([2]; rat liver microsomes (male Sprague-Dawley), 0.5 μM test compound, […] microsomal protein, pH 7.4, 37° C.) | Stability in rat liver microsomes (t1/2 in minutes) ([2]; rat, microsomes, pH 7.4) | Stability in human liver microsomes (t1/2 in minutes) [4] | EC50 [6] | EC50 ([6]; Homo sapiens, MX1, 72 h) | SMILES
1 | 10.2 nM | 4 min |  | 2 min | 11.6 nM |  |  |  |  | 112 nM | CCN(CC)S(=O)(=O)c1cnc(OCC2CC2)c(-c2cn(C)c(=O)c3[nH]ccc23)c1 [Example 272, 6-(cyclopropylmethoxy)-N,N-diethyl-5-(6-methyl-7-oxo-6,7-dihydro-1H-pyrrolo[2,3-c]pyridin-4-yl)pyridine-3-sulfonamide]
2 | 6.3 nM | 5 min |  | 4 min | 14.3 nM |  |  |  |  | 21.1 nM | Cn1cc(-c2cc(S(C)(=O)=O)ccc2OC2Cc3ccccc3C2)c2cc[nH]c2c1=O [Example 277, 4-[2-(2,3-dihydro-1H-inden-2-yloxy)-5-(methylsulfonyl)phenyl]-6-methyl-1,6-dihydro-7H-pyrrolo[2,3-c]pyridin-7-one]
3 | 14.2 nM | 43 min |  | 83 min | 5.2 nM |  |  |  |  | 18.6 nM | CCS(=O)(=O)Cc1ccc(Oc2ccc(F)cc2F)c(-c2cn(C)c(=O)c3[nH]ccc23)c1 [Example 297, 4-{2-(2,4-difluorophenoxy)-5-[(ethylsulfonyl)methyl]phenyl}-6-methyl-1,6-dihydro-7H-pyrrolo[2,3-c]pyridin-7-one]
4 | 80.1 nM | 2 min |  | 1 min | 5 nM |  |  |  |  | 36 nM | Cn1cc(-c2cc(S(=O)(=O)N3CCCC3)ccc2Oc2ccc(F)cc2F)c2cc[nH]c2c1=O [Example 299, 4-[2-(2,4-difluorophenoxy)-5-(pyrrolidin-1-ylsulfonyl)phenyl]-6-methyl-1,6-dihydro-7H-pyrrolo[2,3-c]pyridin-7-one]
5 |  | 3 min | 12 min | 47 min |  |  |  |  |  |  | Cn1cc(-c2cc(CN3CCOCC3)ccc2OCC2CC2)c2cc[nH]c2c1=O [Example 316, 4-[2-(cyclopropylmethoxy)-5-(morpholin-4-ylmethyl)phenyl]-6-methyl-1,6-dihydro-7H-pyrrolo[2,3-c]pyridin-7-one]
6 | 36.9 nM | 3 min |  | 0.8 min | 32.7 nM |  |  |  |  | 74 nM | Cn1cc(-c2cc(S(=O)(=O)NCc3cccnc3)ccc2OCC2CC2)c2cc[nH]c2c1=O [Example 333, 4-(cyclopropylmethoxy)-3-(6-methyl-7-oxo-6,7-dihydro-1H-pyrrolo[2,3-c]pyridin-4-yl)-N-(pyridin-3-ylmethyl)benzenesulfonamide]
7 | 71.9 nM | 5 min |  | 2 min | 11.5 nM |  |  |  |  | 510 nM | CCS(=O)(=O)N(Cc1ccccn1)c1ccc(Oc2ccc(F)cc2F)c(-c2cn(C)c(=O)c3[nH]ccc23)c1 [Example 342, N-[4-(2,4-difluorophenoxy)-3-(6-methyl-7-oxo-6,7-dihydro-1H-pyrrolo[2,3-c]pyridin-4-yl)phenyl]-N-(pyridin-2-ylmethyl)ethanesulfonamide]
8 | 42.7 nM | 7 min |  | 2 min | 4.8 nM |  |  |  |  | 224 nM | CCS(=O)(=O)N(CC1CC1)c1ccc(Oc2ccc(F)cc2F)c(-c2cn(C)c(=O)c3[nH]ccc23)c1 [Example 343, N-(cyclopropylmethyl)-N-[4-(2,4-difluorophenoxy)-3-(6-methyl-7-oxo-6,7-dihydro-1H-pyrrolo[2,3-c]pyridin-4-yl)phenyl]ethanesulfonamide]
9 | 15.6 nM | 6 min |  | 4 min | 4 nM |  |  |  |  | 83.9 nM | Cn1cc(-c2cc(S(=O)(=O)Nc3ccc(F)cc3)ccc2OCC2CC2)c2cc[nH]c2c1=O [Example 347, 4-(cyclopropylmethoxy)-N-(4-fluorophenyl)-3-(6-methyl-7-oxo-6,7-dihydro-1H-pyrrolo[2,3-c]pyridin-4-yl)benzenesulfonamide]

The remaining lines, values behind:

Row | SMILES | Ki [1] | half-life at 0.5 μM [2, 7] | half-life at 0.5 μM [3] | half-life at 0.5 μM [4] | Ki [5] | Stability in rat liver microsomes (t1/2 in minutes) ([2]; rat liver microsomes (male Sprague-Dawley), 0.5 μM test compound, […] microsomal protein, pH 7.4, 37° C.) | Stability in rat liver microsomes (t1/2 in minutes) ([2]; rat, microsomes, pH 7.4) | Stability in human liver microsomes (t1/2 in minutes) [4] | EC50 [6] | EC50 ([6]; Homo sapiens, MX1, 72 h)
10 | Cn1cc(-c2cc(CC(=O)O)ccc2OCc2ccccc2)c2cc[nH]c2c1=O [Example 35, [4-(benzyloxy)-3-(6-methyl-7-oxo-6,7-dihydro-1H-pyrrolo[2,3-c]pyridin-4-yl)phenyl]acetic acid] | 661 nM | > 120 min | 42 min | 37 min | 1140 nM |  |  |  |  | 
11 | Cn1cc(-c2ccccc2C(=O)N2CCOCC2)c2cc[nH]c2c1=O [Example 61, 6-methyl-4-[2-(morpholin-4-ylcarbonyl)phenyl]-1,6-dihydro-7H-pyrrolo[2,3-c]pyridin-7-one] | > 13000 nM | > 120 min | > 120 min | > 120 min | > 22200 nM |  |  |  |  | 
12 | Cn1cc(-c2cc(C(=O)Nc3ccc4cn[nH]c4c3)ccc2Oc2ccc(F)cc2F)c2cc[nH]c2c1=O [Example 118, 4-(2,4-difluorophenoxy)-N-(1H-indazol-6-yl)-3-(6-methyl-7-oxo-6,7-dihydro-1H-pyrrolo[2,3-c]pyridin-4-yl)benzamide] |  | 34 min | 18 min | 81 min |  |  |  |  |  | 
13 | Cn1cc(-c2cc(C(=O)N3CCN(C(=O)N4CCCC4)CC3)ccc2Oc2ccc(F)cc2F)c2cc[nH]c2c1=O [Example 119, 4-[2-(2,4-difluorophenoxy)-5-{[4-(pyrrolidin-1-ylcarbonyl)piperazin-1-yl]carbonyl}phenyl]-6-methyl-1,6-dihydro-7H-pyrrolo[2,3-c]pyridin-7-one] | 44.4 nM | 24 min | 2 min | 14 min | 22.5 nM |  |  |  |  | 
14 | CN(C)c1ccc(NC(=O)c2ccc(Oc3ccc(F)cc3F)c(-c3cn(C)c(=O)c4[nH]ccc34)c2)cc1 [Example 120, 4-(2,4-difluorophenoxy)-N-[4-(dimethylamino)phenyl]-3-(6-methyl-7-oxo-6,7-dihydro-1H-pyrrolo[2,3-c]pyridin-4-yl)benzamide] | 190 nM | 12 min | 10 min | 19 min | 304 nM |  |  |  |  | 
15 | Cn1cc(-c2cc(C(=O)NCCN3CCCC3=O)ccc2Oc2ccc(F)cc2F)c2cc[nH]c2c1=O [Example 122, 4-(2,4-difluorophenoxy)-3-(6-methyl-7-oxo-6,7-dihydro-1H-pyrrolo[2,3-c]pyridin-4-yl)-N-[2-(2-oxopyrrolidin-1-yl)ethyl]benzamide] |  | 16 min | 2 min | 8 min |  |  |  |  |  | 
16 | CN(C)C(=O)CN1CCN(C(=O)c2ccc(Oc3ccc(F)cc3F)c(-c3cn(C)c(=O)c4[nH]ccc34)c2)CC1 [Example 127, 2-{4-[4-(2,4-difluorophenoxy)-3-(6-methyl-7-oxo-6,7-dihydro-1H-pyrrolo[2,3-c]pyridin-4-yl)benzoyl]piperazin-1-yl}-N,N-dimethylacetamide] |  | 71 min | 20 min | 44 min |  |  |  |  |  | 
17 | Cn1cc(-c2cc(C(=O)NCCc3c[nH]c4ccccc34)ccc2Oc2ccc(F)cc2F)c2cc[nH]c2c1=O [Example 133, 4-(2,4-difluorophenoxy)-N-[2-(1H-indol-3-yl)ethyl]-3-(6-methyl-7-oxo-6,7-dihydro-1H-pyrrolo[2,3-c]pyridin-4-yl)benzamide] |  | 5 min | 3 min | 4 min |  |  |  |  |  | 
18 | Cn1cc(-c2ccccc2C(=O)c2ccc(Cl)cc2)c2cc[nH]c2c1=O [Example 139, 4-[2-(4-chlorobenzoyl)phenyl]-6-methyl-1,6-dihydro-7H-pyrrolo[2,3-c]pyridin-7-one] |  | 8 min | 7 min | 13 min |  |  |  |  |  | 
19 | Cn1cc(-c2ccccc2C(O)c2ccc(Cl)cc2)c2cc[nH]c2c1=O (centres unmarked) [Example 140, 4-{2-[(4-chlorophenyl)(hydroxy)methyl]phenyl}-6-methyl-1,6-dihydro-7H-pyrrolo[2,3-c]pyridin-7-one] |  | 13 min | 18 min | 19 min |  |  |  |  |  | 
20 | Cn1cc(-c2cc(S(C)(=O)=O)ccc2Oc2cccnc2)c2cc[nH]c2c1=O [Example 190, 6-methyl-4-[5-(methylsulfonyl)-2-(pyridin-3-yloxy)phenyl]-1,6-dihydro-7H-pyrrolo[2,3-c]pyridin-7-one] |  | 66 min | 8 min | 27 min |  |  |  |  |  | 
21 | CCS(=O)(=O)c1ccc(OC2CCC(=O)CC2)c(-c2cn(C)c(=O)c3[nH]ccc23)c1 [Example 199, 4-{5-(ethylsulfonyl)-2-[(4-oxocyclohexyl)oxy]phenyl}-6-methyl-1,6-dihydro-7H-pyrrolo[2,3-c]pyridin-7-one] |  |  | 3 min | 94 min |  | 1 min |  |  |  | 
22 | COc1cc(Br)ccc1-c1cn(C)c(=O)c2[nH]ccc12 [Example 241, 4-(4-bromo-2-methoxyphenyl)-6-methyl-1,6-dihydro-7H-pyrrolo[2,3-c]pyridin-7-one] |  | 9 min | 4 min | 39 min |  |  |  |  |  | 
23 | CCS(=O)(=O)c1ccc(O[C@H]2CC[C@@](C)(OC)CC2)c(-c2cn(C)c(=O)c3[nH]ccc23)c1 [Example 268, 4-(5-(ethylsulfonyl)-2-(cis-4-methoxy-4-methylcyclohexyloxy)phenyl)-6-methyl-1H-pyrrolo[2,3-c]pyridin-7(6H)-one] | 0.76 nM |  |  |  | 0.57 nM |  | 26 min | 10 min | 6.2 nM | 
